Molecules are shown by their SMILES. pIC50: −log10 of the molar value.

For the first assay, the target named is Human Full Length PARG (Homo sapiens (Human), UniProt Q86W56). The experiment in a line: PARG enzyme assay (TR-FRET). It is filed as biochemical. The following applies: read-out: PARG Biochem IC50.
Human Full Length PARG, sequence (Q86W56 whole entry): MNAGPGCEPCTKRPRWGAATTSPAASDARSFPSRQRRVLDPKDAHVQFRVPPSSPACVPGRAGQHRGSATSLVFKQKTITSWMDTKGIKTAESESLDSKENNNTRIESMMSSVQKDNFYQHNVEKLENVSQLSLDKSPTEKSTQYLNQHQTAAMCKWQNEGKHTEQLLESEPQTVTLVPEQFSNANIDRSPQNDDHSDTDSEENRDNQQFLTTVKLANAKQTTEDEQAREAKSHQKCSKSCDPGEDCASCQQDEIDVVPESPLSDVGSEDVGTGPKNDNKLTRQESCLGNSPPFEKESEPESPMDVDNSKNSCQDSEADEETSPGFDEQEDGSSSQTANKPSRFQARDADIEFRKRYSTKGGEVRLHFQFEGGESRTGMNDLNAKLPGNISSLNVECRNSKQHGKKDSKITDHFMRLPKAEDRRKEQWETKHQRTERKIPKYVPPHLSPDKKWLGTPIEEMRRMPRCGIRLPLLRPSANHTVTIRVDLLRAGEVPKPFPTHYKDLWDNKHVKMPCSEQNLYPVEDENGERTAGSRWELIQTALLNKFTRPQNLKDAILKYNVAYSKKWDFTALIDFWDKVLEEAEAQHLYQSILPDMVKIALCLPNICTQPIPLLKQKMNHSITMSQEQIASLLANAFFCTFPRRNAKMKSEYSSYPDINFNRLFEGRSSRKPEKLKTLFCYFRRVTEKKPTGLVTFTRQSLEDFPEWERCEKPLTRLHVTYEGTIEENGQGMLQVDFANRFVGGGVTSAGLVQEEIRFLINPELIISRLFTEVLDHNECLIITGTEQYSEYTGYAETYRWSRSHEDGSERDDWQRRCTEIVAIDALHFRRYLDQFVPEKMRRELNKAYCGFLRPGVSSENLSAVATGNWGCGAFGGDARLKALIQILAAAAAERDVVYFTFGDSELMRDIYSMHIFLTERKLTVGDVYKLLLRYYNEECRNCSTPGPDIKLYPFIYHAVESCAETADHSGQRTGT
Regarding `Cn1c(=O)n(Cc2cnc[nH]2)c(=O)c2cc(S(=O)(=O)NC3(C)CC3)ccc21` [Example 505, 3-(1H-Imidazol-4-ylmethyl)-1-methyl-N-(1-methylcyclopropyl)-2,4-dioxo-quinazoline-6-sulfonamide], the negative logarithm of the IC50 (pIC50) was 5.42.

For the compound `CC(C)n1cc(Cn2c(=O)c3cc(S(=O)(=O)NC4(C)CC4)ccc3n(C)c2=O)cn1` [Example 507, 3-[(1-Isopropylpyrazol-4-yl)methyl]-1-methyl-N-(1-methylcyclopropyl)-2,4-dioxo-quinazoline-6-sulfonamide], the pIC50 is 5.38.

As for `Cn1cnnc1Cn1c(=O)c2cc(S(=O)(=O)NC3(C)CC3)ccc2n(C)c1=O` [Example 499, 1-Methyl-N-(1-methylcyclopropyl)-3-[(4-methyl-1,2,4-triazol-3-yl)methyl]-2,4-dioxo-quinazoline-6-sulfonamide], the pIC50 is 5.61.

Consider `Cc1nonc1Cn1c(=O)c2cc(S(=O)(=O)NC3(C)CC3)ccc2n(C)c1=O` [Example 511, 1-Methyl-N-(1-methylcyclopropyl)-3-[(4-methyl-1,2,5-oxadiazol-3-yl)methyl]-2,4-dioxo-quinazoline-6-sulfonamide], for which the pIC50 was 5.69.

Turning to `Cn1c(=O)n(CC(=O)c2ccc(C#N)cc2)c(=O)c2cc(S(=O)(=O)NC3(C)CC3)ccc21` [Example 531, 3-[2-(4-Cyanophenyl)-2-oxo-ethyl]-1-methyl-N-(1-methylcyclopropyl)-2,4-dioxo-quinazoline-6-sulfonamide], the negative logarithm of the IC50 (pIC50) was 5.49.

Take `CC1(NS(=O)(=O)c2cc3c4c(cccc4c2)C(=O)NC3=O)CC1` [Example 447, N-(1-Methylcyclopropyl)-1,3-dioxo-benzo[de]isoquinoline-5-sulfonamide]: the negative logarithm of the IC50 (pIC50) was 5.46.

The assay is the same for the next values; noted with them: read-out: PARG Biochem IC50 Geomean.
On to `Cn1c(=O)c2cc(S(=O)(=O)NC3(C)CC3)ccc2n(CCC2CC2)c1=O` [Example 43], for which the pIC50 is 5.93.

Turning to `Cc1cc(Cn2nc(N(C)C)c3ccc(S(=O)(=O)NC4(C)CC4)cc3c2=O)on1` [Example 282], the pIC50 is 6.20.

Turning to `Cc1cc(Cn2nc(Cl)c3ccc(S(=O)(=O)NC4(C)CC4)cc3c2=O)on1` [Example 262, 1-Chloro-N-(1-methylcyclopropyl)-3-[(3-methylisoxazol-5-yl)methyl]-4-oxo-phthalazine-6-sulfonamide], the pIC50 is 5.96.

As to `Cn1ccnc1Cn1c(=O)c2cc(S(=O)(=O)NC3(C)CC3)ccc2n(C)c1=O` [Example 113], the pIC50 is 5.13.

Regarding `Cn1c(=O)n(CC(=O)c2ccc(N3CCCC3)cc2)c(=O)c2cc(S(=O)(=O)NC3(C)CC3)ccc21` [Example 114], the negative-log IC50 (pIC50) is 5.82.

With `Cn1c(=O)c2cc(S(=O)(=O)NC3(C)CC3)ccc2n(C)c1=O` [Example 2], the pIC50 was 5.32.

For the compound `CC1(NS(=O)(=O)c2ccc3nc(C4CC4)[nH]c(=O)c3c2)CC1` [Example 54], the negative logarithm of the IC50 (pIC50) is 5.62.

In the case of `Cn1c(=O)c2cc(S(=O)(=O)NC3(C)CC3)ccc2n(Cc2noc(C(N)=O)n2)c1=O` [Example 95], the pIC50 is 6.12.

In the case of `Cn1c(=O)c2cc(S(=O)(=O)NC3(C)CC3)ccc2n(Cc2cccnc2)c1=O` [Example 83], the negative logarithm of the IC50 (pIC50) is 5.88.

In the case of `Cn1c(=O)c2cc(S(=O)(=O)NC3(C)CC3)ccc2n(Cc2ccccn2)c1=O` [Example 82], the pIC50 was 5.24.

On to `Cn1c(=O)n(Cc2nc3ccccc3[nH]2)c(=O)c2cc(S(=O)(=O)NC3(C)CC3)ccc21` [Example 112], for which the pIC50 is 5.24.

Regarding `Cn1c(=O)n(Cc2cncs2)c(=O)c2cc(S(=O)(=O)NC3(C)CC3)ccc21` [Example 147], the pIC50 is 5.92.

Turning to `COc1cccc(Cc2nn(Cc3cc(C)no3)c(=O)c3cc(S(=O)(=O)NC4(C)CC4)ccc23)c1` [Example 315], the negative-log IC50 (pIC50) is 6.06.

As to `Cc1cc(Cn2ccc3ccc(S(=O)(=O)NC4(C)CC4)cc3c2=O)on1` [Example 242, N-(1-Methylcyclopropyl)-2-[(3-methylisoxazol-5-yl)methyl]-1-oxo-isoquinoline-7-sulfonamide], the negative logarithm of the IC50 (pIC50) was 5.13.

On to `Cn1c(-c2ccccc2)nc2ccc(S(=O)(=O)NC3(C)CC3)cc2c1=O` [Example 97], for which the negative-log IC50 (pIC50) is 5.66.

As for `Cc1cc(Cn2c(=O)c3cc(S(=O)(=O)NC4(C)CC4)ccc3n(C)c2=O)n(C)n1` [Example 123], the pIC50 is 5.62.

On to `Cn1nc(Cl)c2ccc(S(=O)(=O)NC3(C)CC3)cc2c1=O` [Example 227, 1-Chloro-3-methyl-N-(1-methylcyclopropyl)-4-oxo-phthalazine-6-sulfonamide], for which the pIC50 was 5.29.

Turning to `Cn1c(=O)c2cc(S(=O)(=O)NC3(C)CC3)ccc2n(CC2CCCO2)c1=O` (stereo not shown) [Example 49], the pIC50 is 5.62.

`Cn1c(=O)c2cc(S(=O)(=O)NC3(C)CC3)ccc2n(Cc2cccc(C#N)c2)c1=O` [Example 69]: the pIC50 was 5.94.

Regarding `Cc1ccccc1Cn1c(=O)n(C)c(=O)c2cc(S(=O)(=O)NC3(C)CC3)ccc21` [Example 56], the pIC50 was 5.48.

For the compound `Cc1nc(C(F)(F)F)c(Cn2c(=O)c3cc(S(=O)(=O)NC4(C)CC4)ccc3n(C)c2=O)s1` [Example 179], the negative logarithm of the IC50 (pIC50) is 6.14.

Regarding `Cn1c(=O)n(CC2CC2(F)F)c(=O)c2cc(S(=O)(=O)NC3(C)CC3)ccc21` (stereo not shown) [Example 50], the pIC50 was 5.47.

As for `Cc1ncoc1Cn1c(=O)c2cc(S(=O)(=O)NC3(C)CC3)ccc2n(C)c1=O` [Example 188], the pIC50 is 5.74.

As for `Cc1cc(Cn2nc(CC3CCCCC3)c3ccc(S(=O)(=O)NC4(C)CC4)cc3c2=O)on1` [Example 314], the negative-log IC50 (pIC50) was 5.86.

Take `Cc1cc(Cn2c(=O)c3cc(S(=O)(=O)NC4(C)CC4)ccc3n(C)c2=O)n[nH]1` [Example 195]: the negative-log IC50 (pIC50) was 5.49.

In the case of `CC1(NS(=O)(=O)c2ccc3[nH]c(=O)n(C4CC4)c(=O)c3c2)CC1` [Example 240, 3-Cyclopropyl-N-(1-methylcyclopropyl)-2,4-dioxo-1H-quinazoline-6-sulfonamide], the pIC50 is 5.39.

Regarding `Cn1c(=O)c2cc(S(=O)(=O)NC3(C)CC3)ccc2n(Cc2ccccc2Cl)c1=O` [Example 62], the pIC50 is 5.90.

`Cc1cc(Cn2c(=O)c3cc(S(=O)(=O)NC4(C)CC4)ccc3n(CCN3CCCCC3)c2=O)on1` [Example 278]: the negative logarithm of the IC50 (pIC50) was 6.28.

For the compound `Cn1c(=O)n(Cc2ccc(C(N)=O)cc2)c(=O)c2cc(S(=O)(=O)NC3(C)CC3)ccc21` [Example 89], the negative-log IC50 (pIC50) was 5.23.

As for `Cn1c(=O)c2cc(S(=O)(=O)NC3(C)CC3)ccc2n(CC2CCCCO2)c1=O` (stereo not shown) [Example 38], the pIC50 is 5.81.

In the case of `Cn1c(=O)c(=O)n(Cc2ccc(F)cc2)c2ccc(S(=O)(=O)NC3(C)CC3)cc21` [Example 130, 1-[(4-Fluorophenyl)methyl]-4-methyl-N-(1-methylcyclopropyl)-2,3-dioxo-quinoxaline-6-sulfonamide], the pIC50 is 5.47.

With `COc1nn(Cc2cc(C)no2)c(=O)c2cc(S(=O)(=O)NC3(C)CC3)ccc12` [Example 312, 1-Methoxy-N-(1-methylcyclopropyl)-3-[(3-methylisoxazol-5-yl)methyl]-4-oxo-phthalazine-6-sulfonamide], the pIC50 is 5.91.

Turning to `Cn1c(=O)n(Cc2cccnc2)c(=O)c2cc(S(=O)(=O)NC3(C)CC3)ccc21` [Example 30], the pIC50 was 5.59.

Turning to `Cc1cc(Cn2nc(CC3CCC3)c3ccc(S(=O)(=O)NC4(C)CC4)cc3c2=O)on1` [Example 320], the pIC50 was 6.17.

Values taken from patent publication US10239843B2 (CANCER RESEARCH TECHNOLOGY LIMITED, priority 2014, dated 2019).
